Where two headings read alike, the source gives them in different places.
What was measured:
[1] = tested on: human neural stem cells (NSC); experiment: B-27 supplemented cell culture performance of albumins, human NSC; assay type: cell-based; details: B-27 supplemented culture
Procedure: (§1) Commercially available albumins were analyzed for performance in cell cultures. Bovine serum albumin (BSA), human serum albumin (HSA) and recombinant human serum albumin (Rec HSA) from various sources (including different manufacturers, bovine, human, recombinant HSA (made in yeast or rice), and Freestyle CHO MAX media (Thermo Fisher cat. no. K900020) were analyzed. B-27 (Thermo Fisher Scientific cat. no. 17504044) supplemented cell cultures for mouse pluripotent stem cells (PSC), primary rat neurons, or human neural stem cells (NSC) were prepared (approx. 0.5 to 1× final concentration of B27 in medium). The cultures varied only in the source or type of albumin present. Results shown in FIG. 1A illustrate that significant performance differences existed among the albumins tested, and further that performance is dependent on cell type. In fact, two cultures comprising the same cell line and differing only in addition of BSA1 or BSA2 differed in performance.

[2] = tested on: FoxG1 expression in pluripotent stem cells (PSC); experiment: FoxG1 expression and specification of PSC differentiation, ICC and qPCR; assay type: cell-based, human
Procedure: Peptide C (SEQ ID NO:1) was assessed for its effect on cell differentiation. […] Without wishing to be bound by theory, this was likely due to variations in cholesterol levels within the albumin samples. To assess the effect of the tetrapeptide […] on cell differentiation, pluripotent stem cells (PSC) were cultured in the presence either BSA1, BSA2, or peptide C. […] Results are shown in FIGS. 17A and 17B, respectively. […] Upon differentiation, cells will develop their positional identity such as forebrain, midbrain, hindbrain etc. Specification is the step where PSC develop this positional identification.

rat neurons [3] = experiment: Calcein AM viability assay of rat neurons in neurobasal medium with ITS
Procedure: (§5) The effect of different BSAs on cell viability was tested using the eBioscience™ Calcein AM Viability Dye, according to manufacturer's protocol. Briefly, rat neurons were cultured in neurobasal medium supplemented with ITS and BSA1 or BSA2 at a concentration of 0.25%.
(§6) The ability of antioxidant to reverse iron-induced toxicity was then investigated. Tocopherol at a concentration of 2 μg/mL in neurobasal medium supplemented with lean supplement (Insulin-Transferrin-Selenium, ITS) was added to cultured rat neuron cells and either BSA1 or BSA2.

[4] = tested on: mouse pluripotent stem cells (PSC); experiment: B-27 supplemented cell culture performance of albumins, mouse PSC; assay type: cell-based; details: B-27 supplemented culture
Procedure: as §1

[5] = tested on: human neural stem cells (hNSC); experiment: hNSC proliferation, VI-CELL XR cell counting assay; assay type: cell-based; details: compared to BSA1
Procedure: (§2) BSA1 and BSA2 were further analyzed for their effect on stem cells. Mouse embryonic stem cells (mESC) or human neural stem cells (hNSC) were grown in cell culture media containing BSA1 or BSA2, and proliferation was measured. Proliferation of mESCs was measured using PrestoBlue assay (Thermo Fisher Scientific) according to the manufacturer's protocol. Proliferation of hNSCs was measured with VI-CELL™ XR cell counting assay (Beckman Coulter) according to the manufacturer's protocol.

[6] = tested on: Mouse embryonic stem cells (mESC); experiment: mESC proliferation, PrestoBlue assay; assay type: cell-based; details: compared to BSA1
Procedure: as §2

neuronal cell = experiment: Interactions between B27 supplement components and albumins, neuronal cell viability; assay type: cell-based; details: B27-supplemented media
Procedure: Next, interactions between different components of B27 supplement and various albumins were analyzed (FIGS. 1B-1J). The effect of these molecular interactions were also assessed for their effect on neuronal cell stability in cell culture.

rat neurons [7] = experiment: Rat neuron viability with low or high GSH or lipoic acid; assay type: cell-based; details: low or high concentration, compared to control culture
Procedure: Applicants then tested chemically defined components that may replace the catalase and thiol antioxidant activity of albumins. GSH and lipoic acid were assessed for their ability to provide catalase and thiol antioxidant activity by culturing rat neurons in the presence of either low or high concentrations of GSH or lipoic acid and subsequently assaying cell viability.

[8] = tested on: Rat cortical neuron (RCN) cells; experiment: Rat cortical neuron (RCN) survival in neurobasal medium with ITS; assay type: cell-based; details: for RCN cell survival: increasing concentrations, assessed on day 6
Excerpt: (§3) Trolox (6-hydroxy-2,5,7,8-tetramethylchroman-2-carboxylic acid), a water-soluble derivative of Vitamin E, was investigated as a replacement for albumin. […] Without any anti-oxidant, aged neurons started to degenerate at about day 4, leaving few viable neurons left on the plate.

Water solubility = assay type: physicochemical; details: compared to Vitamin E
Excerpt: as §3

rat neuron cells [9] = experiment: Rat neuron viability with synthetic peptides replacing albumin; assay type: cell-based; details: for rat neuron cell growth: neurobasal medium with ITS, day 5, Calcein AM, FIG. 20; for rat neuron cell viability, HSA supportive properties: culture medium lacking albumin, FIG. 10; for viability of cultured rat neuron cells, HSA-like function: FIG. 11
Excerpt: Albumins such as HSA have a metal binding site, which functions as a chelator of transition metals that are toxic to neuron cells. Applicants therefore investigated whether HSA may be replaced by a synthetic peptide, which mimics the high affinity binding of the functional metal binding site. […] Peptide B, which is the Peptide C sequence extended by 5 additional flanking HSA residues on either end, was similarly non-functional. […] Without wishing to be bound by scientific theory, the additional amino acid residues may block or otherwise inhibit the chelating functions of the Peptide C sequence.
The importance of Peptide C ionic property and sequence specificity in conferring enhancing properties to cell cultures was investigated. The tetrapeptide DAHK (SEQ ID NO:1) is a sequence comprising negatively, neutral, and two positively charged amino acids (−X++). […] To assess if amino acid sequence or charge specificity confers beneficial properties, a scrambled Peptide C sequence was prepared and tested. The scrambled peptide comprising the sequence AKDH (SEQ ID NO: 3; scramble) and charge of X+−+ was tested, and results are shown in FIG. 11.
To determine the impact of peptide length, Applicants assessed a variety of peptides that varied both in length and in the identity of the amino acid residue(s) that flank the Peptide C DAHK sequence (SEQ ID NO:1). Further, to assess the effect of ionic property, peptides were tested that included amino acid substitutions to the peptide of SEQ ID NO:1. The amino acid substitutions were designed to retain ionic and hydrophobic properties of SEQ ID NO:1, namely by preserving the order of negatively charged, hydrophobic uncharged, and positively charged residues. […] The cultures were further supplemented with rHSA, or a variation of the Peptide C derived synthetic peptide.
In a first set of cell cultures, the synthetic peptides included the DAHK (SEQ ID NO:1) amino acid sequence or peptides with additional residues on one or both the N-terminus and C-terminus of SEQ ID NO:1. On day 5 of culturing, the cells were labeled with Calcein AM and counted. […] That is, the length of adjacent residues on the N-terminus and C-terminus of the peptide is not critical for maintaining the function of peptide C unless the conformation is impacted as so not to maintain its beneficial properties in cell culture.

rat neurons [10] = tested on: rat neurons
Procedure: as §5, §6

[11] = Superoxide Dismutase (SOD) Colorimetric Activity Kit; assay type: biochemical; details: range of concentrations
Procedure: Applicants first analyzed the superoxide dismutase (SOD) activity of various albumins, utilizing the Superoxide Dismutase (SOD) Colorimetric Activity Kit (Thermo Fisher Scientific, Waltham, MA), according to the manufacturer's protocol. Briefly, SOD activity was assessed utilizing an assay comprising the reaction of a substrate and Xanthine Oxidase to form superoxide (O^−2), the levels of which are decreased by SOD activity.
Next, the ability of chemically defined components to replace SOD antioxidant activity was tested. Mito-Tempo, which scavenges O2•^− in mitochondria, was compared with HSA for its ability to reduce superoxide, as assessed using the Superoxide Dismutase (SOD) Colorimetric Activity Kit (Thermo Fisher Scientific, Waltham, MA), according to the manufacturer's protocol.

HEK293 cells = experiment: Copper-stressed HEK293 proliferation, PRESTOBLUE viability; assay type: cell-based; details: 50 μM copper, 100 μg/mL or 50 μg/mL peptide
Procedure: (§4) The effect of metals and synthetic peptides were further assessed in mouse embryonic stem cell (mESC) and HEK293 cell proliferation cultures. mESC and HEK293 cultures were spiked with 50 μM copper, thereby creating a toxic culture environment and inhibiting cell proliferation. […] PRESTOBLUE™ cell viability reagent (Thermo Fisher Scientific, Waltham, MA), was used to assess viability according to the manufacturer's protocol.

[12] = Lot-to-lot consistency and shelf life of the peptide; assay type: physicochemical; details: multiple lots, in solution
[13] = tested on: mouse embryonic stem cell (mESC); experiment: Copper-stressed mESC proliferation, PRESTOBLUE viability; assay type: cell-based; details: 50 μM copper, 100 μg/mL or 50 μg/mL peptide
Procedure: as §4

rat neuron cells [14] = details: 50 μM copper, neurobasal medium with ITS

BSA1: BSA source with higher iron content; fatty acid free
cell culture performance [1]: supportive properties
specification of PSC differentiation [2]: specification of PSC differentiation was impacted
rat neuron viability (rat neurons [3]; albumin at 0.25%, compared to BSA2): reduced viability of rat neurons
cell culture performance [4]: supportive properties

BSA2: BSA from a second source; fatty acid rich
cell culture performance [1]: caused toxicity
specification of PSC differentiation [2]: specification of PSC differentiation was impacted
cell culture performance [4]: caused toxicity
proliferation of hNSC [5]: reduces proliferation
proliferation of mESC [6]: reduces proliferation

CC(=O)Oc1c(C)c(C)c2c(c1C)CCC(C)(CCC[C@H](C)CCC[C@H](C)CCCC(C)C)O2 (stereo partly drawn) [X2, Tocopherol acetate]
effect on neuronal cell viability of B27 component interacting with BSA and HSA (neuronal cell): positive effects on neuronal cell viability

O=C(O)CCCC[C@@H]1CCSS1 (racemic) [Lipoic acid, lipoic acid]
rat neuron cell viability (rat neurons [7]): enhanced rat neuron cell viability

Cc1c(C)c2c(c(C)c1O)CCC(C)(C(=O)O)O2 (stereo not drawn) [Trolox, 6-hydroxy-2,5,7,8-tetramethylchroman-2-carboxylic acid]
working range ([8]; compared to Vitamin E): wider working range than Vitamin E
RCN cell survival [8]: reversed cell death
water solubility (Water solubility): higher water solubility

RRDAHK [SEQ ID NO:12]
rat neuron cell growth (rat neuron cells [9]): convey beneficial properties to cell culture

Vitamin E
RCN cell survival [8]: reversed cell death

RRDAHKS [SEQ ID NO:13]
rat neuron cell growth (rat neuron cells [9]): convey beneficial properties to cell culture

GVFRRDAHKSEVAH [Peptide B]
rat neuron cell viability, HSA supportive properties (rat neuron cells [9]): non-functional

N[C@@H](CCC(=O)N[C@@H](CS)C(=O)NCC(=O)O)C(=O)O [GSH, glutathione]
rat neuron cell viability (rat neurons [7]): neither concentration of GSH tested showed significant effects on cell viability

SAYSRGVFRRDAHKSEVAHRFKD [peptide A]
rat neuron cell viability, HSA supportive properties (rat neuron cells [9]): did not retain HSA supportive properties

AKDH [reference compound]
viability of cultured rat neuron cells, HSA-like function (rat neuron cells [9]): the HSA-like function was abolished

RRDAHKSE [SEQ ID NO:15]
rat neuron cell growth (rat neuron cells [9]): convey beneficial properties to cell culture

[Fe] [iron]
rat neuron viability (rat neurons [10]): rat neuron viability was decreased

FRRDAHKSEVA [SEQ ID NO:17]
rat neuron cell growth (rat neuron cells [9]): convey beneficial properties to cell culture

CC1(C)CC(NC(=O)C[P+](c2ccccc2)(c2ccccc2)c2ccccc2)CC(C)(C)N1[O] [Mito-Tempo, (2-(2,2,6,6-tetramethylpiperidin-1-oxyl-4-ylamino)-2-oxoethyl)triphenylphosphonium chloride]
superoxide levels [11]: decrease superoxide levels in a dose-dependent manner

DAHK [Peptide C]
rescue of copper stressed cells (HEK293 cells): to a lesser extent
specification of PSC differentiation [2]: no significant impact
viability of cultured rat neuron cells, HSA-like function (rat neuron cells [9]): functional in improving viability of cultured rat neuron cells
rat neuron cell viability, HSA supportive properties (rat neuron cells [9]): enhanced rat neuron cell viability
lot-to-lot consistency and shelf life [12]: lot-to-lot consistency and good shelf life, even in solution
rescue of copper stressed cells [13]: rescued the stressed cells in a concentration dependent manner
prevention of copper induced toxicity (rat neuron cells [14]): prevented toxicity even in the presence of copper

Tocopherol [reference compound]
effect on neuronal cell viability of B27 component interacting with BSA and HSA (neuronal cell): positive effects on neuronal cell viability
reversal of decreased viability due to BSA1 or iron (rat neurons [3]; 2 μg/mL): reversed decreased viability of the rat neuron cells

FRRDAHKSEV [SEQ ID NO:16]
rat neuron cell growth (rat neuron cells [9]): convey beneficial properties to cell culture

DTHK [counterpart BSA peptide]
viability of cultured rat neuron cells, HSA-like function (rat neuron cells [9]): functional in improving viability of cultured rat neuron cells

From US20240043794A1, “Chemically Defined Serum Albumin Substitutes” (Life Technologies Corporation, priority 2020, published 2024)
